From ChEMBL document CHEMBL1149400, “Tethering identifies fragment that yields potent inhibitors of human caspase-1” (Bioorg Med Chem Lett, 2006)
Residues, ends and D or L forms follow the SMILES beside them. *: point of attachment. Cbz = O=C(OCc1ccccc1)*

Legend:
Caspase-1 = target: T1, Caspase-1 (Homo sapiens, UniProt P29466); test: Inhibitory activity against human Caspase 1
T1 sequence (P29466 whole entry): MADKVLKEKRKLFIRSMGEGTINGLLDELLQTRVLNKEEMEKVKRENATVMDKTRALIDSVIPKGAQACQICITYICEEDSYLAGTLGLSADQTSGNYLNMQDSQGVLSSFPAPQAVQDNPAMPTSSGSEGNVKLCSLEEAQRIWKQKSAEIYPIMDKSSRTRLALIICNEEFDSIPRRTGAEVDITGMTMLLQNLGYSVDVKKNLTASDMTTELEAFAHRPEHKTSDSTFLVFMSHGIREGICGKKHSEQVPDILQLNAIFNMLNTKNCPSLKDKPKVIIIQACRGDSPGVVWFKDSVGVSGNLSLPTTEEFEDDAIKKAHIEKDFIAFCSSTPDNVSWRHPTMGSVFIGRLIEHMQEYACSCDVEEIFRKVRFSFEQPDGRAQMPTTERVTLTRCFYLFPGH

PBMC = test: Inhibition of IL1-beta production in PBMC; assay type: functional, cell-based; conditions: Homo sapiens

SMILES	Ki (Caspase-1) [nM]	EC50 (PBMC) [nM]
CC(C)[C@H](NC(=O)[C@H](Cc1ccc(O)cc1)NC(=O)OCc1ccccc1)C(=O)N[C@@H](C)C(=O)N[C@H](C=O)CC(=O)O	180	3900
O=C[C@H](CC(=O)O)NC(=O)c1cc(NC(=O)c2ccc(Nc3cnc4ccccc4n3)cc2)cs1	260	–
O=C[C@H](CC(=O)O)NC(=O)CCCCCNC(=O)c1ccc(Oc2cnc3ccccc3n2)cc1	2400	27000
O=C[C@H](CC(=O)O)NC(=O)C(CCCCNC(=O)c1ccc(Nc2cncc(Cl)n2)cc1)c1cccs1 (some centres not stated)	54	–
O=C[C@H](CC(=O)O)NC(=O)CCCCCC(=O)Nc1ccc(Nc2cnc3ccccc3n2)cc1	2100	–
O=C[C@H](CC(=O)O)NC(=O)c1ccc(CNC(=O)c2ccc(Nc3cnc4ccccc4n3)cc2)cc1	100	–
Cc1cc(C(=O)NCCCCC(C(=O)N[C@H](C=O)CC(=O)O)c2cccs2)ccc1Nc1cnc2ccccc2n1 (some centres not stated)	4	7700
O=C[C@H](CC(=O)O)NC(=O)C(CCCCNC(=O)c1ccc(Oc2cnc3ccccc3n2)cc1)c1cccs1 (some centres not stated)	–	12400
CC(C)[C@H](NC(=O)c1ccc(Nc2cnc3ccccc3n2)cc1)C(=O)N[C@@H](C)C(=O)N[C@H](C=O)CC(=O)O	4	–
O=C[C@H](CC(=O)O)NC(=O)c1ccc(CNC(=O)c2ccc(Nc3cnc4ccccc4n3)cc2)s1	35	–
O=C[C@H](CC(=O)O)NC(=O)c1ccc(CNC(=O)c2ccc(Nc3cnc4ccccc4n3)cc2)nc1	5	–
O=C[C@H](CC(=O)O)NC(=O)Cc1ccc(CNC(=O)c2ccc(Nc3cnc4ccccc4n3)cc2)s1	120	–
O=C[C@H](CC(=O)O)NC(=O)c1cnc(CNC(=O)c2ccc(Nc3cnc4ccccc4n3)cc2)cn1	1000	–
Cc1cc(C(=O)NCCCCCC(=O)N[C@H](C=O)CC(=O)O)ccc1Nc1cnc2ccccc2n1	320	7700
O=C[C@H](CC(=O)O)NC(=O)[C@H]1CC[C@H](CNC(=O)c2ccc(Nc3cnc4ccccc4n3)cc2)CC1	1950	–
O=C[C@H](CC(=O)O)NC(=O)c1csc(CNC(=O)c2ccc(Nc3cnc4ccccc4n3)cc2)c1	120	–
O=C[C@H](CC(=O)O)NC(=O)c1ccc(CNC(=O)c2ccc(Nc3cnc4ccccc4n3)cc2)o1	2100	–
O=C[C@H](CC(=O)O)NC(=O)CCCCCNC(=O)c1ccc(Nc2cnccn2)cc1	37000	> 200000
O=C[C@H](CC(=O)O)NC(=O)C(CCCCNC(=O)c1ccc(Nc2cnccn2)cc1)c1cccs1 (some centres not stated)	100	20000
CC(C)[C@H](NC(=O)OCc1ccccc1)C(=O)N[C@@H](C)C(=O)N[C@H](C=O)CC(=O)O (Cbz-Val-Ala-Asp-aldehyde)	8	–

Continued, in another order:

Ki (Caspase-1) [nM]	SMILES	EC50 (PBMC) [nM]
2800	O=C[C@H](CC(=O)O)NC(=O)CCCCNC(=O)c1ccc(Nc2cnc3ccccc3n2)cc1	–
5200	O=C[C@H](CC(=O)O)NC(=O)CCCNC(=O)c1ccc(Nc2cnc3ccccc3n2)cc1	–
7	O=C[C@H](CC(=O)O)NC(=O)C(CCCCNC(=O)c1ccc(Nc2cnc3ccccc3n2)cc1)c1cccs1 (some centres not stated)	20500
8	O=C[C@H](CC(=O)O)NC(=O)C(CCCCNC(=O)c1ccc(Nc2cnc3ccccc3n2)cc1)c1ccccc1F (some centres not stated)	–
16	CCC(CCCCNC(=O)c1ccc(Nc2cnc3ccccc3n2)cc1)C(=O)N[C@H](C=O)CC(=O)O (some centres not stated)	–
2600	O=C[C@H](CC(=O)O)NC(=O)CCCCCCNC(=O)c1ccc(Nc2cnc3ccccc3n2)cc1	–
5	Cc1ccc2nc(Nc3ccc(C(=O)NCCCCC(C(=O)N[C@H](C=O)CC(=O)O)c4cccs4)cc3)cnc2c1 (some centres not stated)	–
190	O=C[C@H](CC(=O)O)NC(=O)CCCCCNC(=O)c1ccc(Nc2cnc3ccccc3n2)cc1	4200
5	O=C[C@H](CC(=O)O)NC(=O)C(CCCCNC(=O)c1ccc(Nc2cnc3ccccc3n2)cc1)c1ccccc1 (some centres not stated)	–
